Experimental data as given in PMC10349193 (CPT: Pharmacometrics & Systems Pharmacology, 2023).
Read-outs that look alike come from different tables or passages of the source.

Columns and labels:
[1] = set-up: method as in SimCYP library version 19; conditions: ref SimCYP library version 19; cited from earlier work
[2] = model input; ref SimCYP library version 19; cited from earlier work
[3] = ref SimCYP library version 19, cited from earlier work
CYP3A4 [4] = tested on: CYP3A4; set-up: method as in SimCYP library version 19; conditions: ref SimCYP library version 19; cited from earlier work
Caco-2 = conditions: ref SimCYP library version 19, cited from earlier work
CYP2C9 = conditions: read-out: CYP2C9 Ki; competitive inhibition; ref SimCYP library version 19; cited from earlier work
CYP3A4 [5] = conditions: cited from earlier work
CYP2D6 = conditions: read-out: CYP2D6 Ki; competitive inhibition; ref SimCYP library version 19; cited from earlier work
CYP2C19 = conditions: read-out: CYP2C19 Ki; competitive inhibition; ref SimCYP library version 19; cited from earlier work
[6] = model input; ref SimCYP library version 19; cited from earlier work; remark: listed apart in the source
CYP1A2 [7] = conditions: read-out: CYP1A2 Ki; competitive inhibition; ref SimCYP library version 19; cited from earlier work
P-gp [8] = target: T1, P-gp (Homo sapiens, UniProt P08183); assay: P-gp substrate assessment in Caco-2 monolayers with verapamil; type: in vitro ADME; conditions: Caco-2, with verapamil (concentration not stated), read-out: Efflux ratio P app,BL→AP/AP→BL, with inhibitor
T1 construct: endogenous in cells; host or cells: Caco-2
T1 sequence (P08183 whole entry): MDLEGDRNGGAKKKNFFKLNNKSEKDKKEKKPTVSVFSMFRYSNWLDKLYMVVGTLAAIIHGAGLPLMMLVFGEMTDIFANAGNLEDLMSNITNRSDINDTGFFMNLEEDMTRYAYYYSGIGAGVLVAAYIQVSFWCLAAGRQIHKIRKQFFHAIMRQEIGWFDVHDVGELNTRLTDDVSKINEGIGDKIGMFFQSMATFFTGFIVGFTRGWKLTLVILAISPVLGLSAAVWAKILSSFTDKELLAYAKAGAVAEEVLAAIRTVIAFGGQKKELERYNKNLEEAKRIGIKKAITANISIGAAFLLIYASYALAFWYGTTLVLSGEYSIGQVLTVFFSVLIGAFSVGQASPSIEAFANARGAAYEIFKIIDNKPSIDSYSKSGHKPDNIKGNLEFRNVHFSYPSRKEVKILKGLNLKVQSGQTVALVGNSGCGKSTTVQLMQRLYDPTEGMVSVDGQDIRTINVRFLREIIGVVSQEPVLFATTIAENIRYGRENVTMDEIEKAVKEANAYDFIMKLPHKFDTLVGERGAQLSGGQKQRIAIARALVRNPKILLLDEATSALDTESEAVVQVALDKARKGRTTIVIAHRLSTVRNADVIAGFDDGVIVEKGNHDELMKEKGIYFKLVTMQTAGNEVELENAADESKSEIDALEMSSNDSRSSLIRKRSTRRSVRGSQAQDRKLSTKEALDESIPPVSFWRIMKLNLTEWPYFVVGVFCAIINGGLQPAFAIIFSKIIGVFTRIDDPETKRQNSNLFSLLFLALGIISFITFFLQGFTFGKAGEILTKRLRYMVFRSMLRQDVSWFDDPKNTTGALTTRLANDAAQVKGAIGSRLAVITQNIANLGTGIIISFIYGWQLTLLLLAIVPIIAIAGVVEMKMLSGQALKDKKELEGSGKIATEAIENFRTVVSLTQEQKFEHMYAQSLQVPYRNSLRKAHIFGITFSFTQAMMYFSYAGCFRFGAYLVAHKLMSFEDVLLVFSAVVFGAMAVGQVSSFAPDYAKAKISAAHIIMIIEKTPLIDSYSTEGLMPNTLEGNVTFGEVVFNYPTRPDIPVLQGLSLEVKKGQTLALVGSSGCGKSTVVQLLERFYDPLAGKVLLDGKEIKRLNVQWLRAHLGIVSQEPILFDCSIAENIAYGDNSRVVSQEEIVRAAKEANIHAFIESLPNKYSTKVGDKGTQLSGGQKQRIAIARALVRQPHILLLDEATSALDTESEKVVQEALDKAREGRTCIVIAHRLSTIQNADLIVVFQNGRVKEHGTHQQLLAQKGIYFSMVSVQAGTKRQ

P-gp [9] = tested on: T2, P-gp; assay: as above; type: in vitro ADME; conditions: human, Caco-2, with verapamil (concentration not stated)
T2 construct: endogenous in cells; host or cells: Caco-2

[10] = Apparent permeability in Caco-2 monolayers; type: in vitro ADME; conditions: human
Caco‐2 monolayers = assay: Apparent permeability in Caco-2 monolayers; type: in vitro ADME; conditions: Caco‐2, 10 μM, 2 h
MDCK II = conditions: fluvoxamine file with reference compounds; ref SimCYP library version 19; cited from earlier work
CYP1A2 [11] = tested on: CYP1A2; set-up: method as in SimCYP library version 19; conditions: ref SimCYP library version 19; cited from earlier work
[12] = model input; ref SimCYP library version 19; cited from earlier work; remark: listed apart in the source
CYP2C8 [13] = tested on: CYP2C8; set-up: method as in SimCYP library version 19; conditions: ref SimCYP library version 19; cited from earlier work
CYP2B6 = tested on: CYP2B6; set-up: method as in SimCYP library version 19; conditions: ref SimCYP library version 19, cited from earlier work
CYP2C8 [14] = tested on: CYP2C8; set-up: method as in SimCYP library version 19; conditions: ref SimCYP library version 19, cited from earlier work
[15] = pH 7.4: pH 7.4, Passive&Active, erythromycin file with reference compounds

CC[C@H]1OC(=O)[C@H](C)[C@@H](O[C@H]2C[C@@](C)(OC)[C@@H](O)[C@H](C)O2)[C@H](C)[C@@H](O[C@@H]2O[C@H](C)C[C@H](N(C)C)[C@H]2O)[C@](C)(O)C[C@@H](C)C(=O)[C@H](C)[C@@H](O)[C@]1(C)O [Erythromycin]
CLR [1]: 3.13 L/h
Fraction unbound in plasma [2]: 0.31
Vss ([3]; minimal PBPK model): 0.75/30 L/kg
Volume [Vsac] ([3]; single adjusting compartment): 1e-05 L/kg
kin ([3]; single adjusting compartment): 0 h⁻¹
kout ([3]; single adjusting compartment): 0 h⁻¹
CYP3A4 Kapp (CYP3A4 [4]): 23.2 µM
Caco-2 Papp (Caco-2; [15]): 1.7 10^-6 cm/s

COCCCC/C(=N\OCCN)c1ccc(C(F)(F)F)cc1 [Fluvoxamine]
Ki (CYP2C9): 126 nM
Ki (CYP2D6): 189 nM
Ki (CYP2C19): 6 nM
pKa 1 [6]: 8.7
Ki (CYP1A2 [7]): 2 nM

CC(C)NCC(O)COc1cccc2ccccc12 (centres unmarked) [Propranolol]
efflux ratio at 2 h, 10 μM (P-gp [8]): 0.382
Papp A→B at 2 h, 10 μM (P-gp [9]; read-out: P app,AP→BL, with inhibitor): 57.4 ×10⁻⁶ cm/s
Papp B→A at 2 h, 10 μM (P-gp [9]; read-out: P app,BL→AP, with inhibitor): 21.9 ×10⁻⁶ cm/s
Papp at 2 h ([10]; Caco-2, Apical pH : Basolateral pH 7.4 : 7.4, source Measured, read-out: Caco-2 permeability (model input)): 29.4 ×10⁻⁶ cm/s
Papp B→A at 2 h, 10 μM ([10]; Caco‐2, 10 μM, 2 h, read-out: P app,BL→AP, without inhibitor): 23.1 ×10⁻⁶ cm/s
efflux ratio at 2 h, 10 μM ([10]; Caco‐2, 10 μM, read-out: Efflux ratio P app,BL→AP/AP→BL, without inhibitor): 0.785
P app,AP→BL, without inhibitor (Caco‐2 monolayers): 29.4 10^−6 cm/s
MDCK II Papp (MDCK II): 40.3 10^-6 cm/s
Reference compound Papp (Caco-2; Caco-2 pH 6.5: pH 7.4, references of fluconazole file, unit not given): 27.5
Caco-2 Papp (Caco-2; pH 6.5: pH 7.4, Passive, rifampicin file with reference compound): 21.15 10^-6 cm/s
Caco-2 Papp (Caco-2; [15]): 147 10^-6 cm/s

CO[C@H]1/C=C/O[C@@]2(C)Oc3c(C)c(O)c4c(O)c(c(/C=N/N5CCN(C)CC5)c(O)c4c3C2=O)NC(=O)/C(C)=C\C=C\[C@H](C)[C@H](O)[C@@H](C)[C@@H](O)[C@@H](C)[C@H](OC(C)=O)[C@@H]1C [Rifampicin]
fuinc (CYP1A2 induction) (CYP1A2 [11]): 1
Lag time [12]: 0/30 h
QGut [12]: 9.42/30
fuGut [12]: 0.14
fumic (CYP2C8 inhibition) (CYP2C8 [13]): 1
CLR [1]: 1.26 L/h
EC50 (CYP2B6; induction, read-out: CYP2B6 IndC50): 70 nM
fuinc (CYP2B6 induction) (CYP2B6): 1
Fraction unbound in plasma [2]: 0.116
kin ([3]; single adjusting compartment): 0 h⁻¹
kout ([3]; single adjusting compartment): 0 h⁻¹
Log P [6]: 4.01
pKa 1 [6]: 1.7
pKa 2 [6]: 7.9
EC50 (CYP2C8 [14]; induction, read-out: CYP2C8 IndC50): 300 nM
fuinc (CYP2C8 induction) (CYP2C8 [14]): 1
